Assay results: article PMC10976246, “Amide-to-Triazole Switch in Somatostatin-14-Based Radioligands: Impact on Receptor Affinity and In Vivo Stability” (Pharmaceutics, 2024)
Numbered stars: 1 amine (or outer) side, 2 acyl side, 3 side chain; on linkers, the order of the positions; unused ones are H or OH. Bridge positions count the residues as written; N and C are the ends. Square brackets hold non-standard residues; d marks the D form. Peptide text beside a SMILES is read from it. * marks the point of attachment. X2 = O=C([C@H](Cc1ccccc1)n1cc([C@H](Cc2ccccc2)N[*:1])nn1)[*:2]; X1 = NC(=O)C[C@H](N[*:1])c1cn([C@@H](Cc2ccccc2)C(=O)[*:2])nn1; DOTA = O=C(O)CN1CCN(CC(=O)O)CCN(CC(=O)*)CCN(CC(=O)O)CC1

Legend:
hSST3R = target: T1, hSST3R (Homo sapiens, UniProt P32745); test: Competition binding against [125I][I-Tyr25]LTT-SST-28, HEK293-SST3R cell membranes; settings: vs [125I][I-Tyr25]LTT-SST-28, 1 h at 22 °C, mean ± sd
T1 construct: S. Schultz (Jena, Germany); host or cells: HEK293
Experimental: After an incubation period of 1 h at 22 °C, the reaction was stopped by dilution with ice-cold washing buffer (10 mM HEPES at pH 7.4, 150 mM NaCl, 3 mL). The samples were filtered through 1%PEI presoaked glass fiber filters using a Brandel® cell harvester. After thorough washing with ice-cold washing buffer (2 × 3 mL), the filters were collected and measured in the γ-counter.

[1] = target: T2, SST2R-expressing AR42J cells (Rattus norvegicus, UniProt P30680); test: Receptor saturation binding assay in AR42J cells; settings: 2 h, n = 2–3 in triplicates
T2 construct: The SST2R-expressing rat pancreatic cells (AR42J) were cultured; host or cells: AR42J rat pancreatic cells
Experimental: AR42J cells were seeded in six-well plates (1 × 10^6 cells/well) 2 days before the assay. One hour prior to the experiment, the medium was removed, the cells were washed with PBS (1 mL) and fresh assay medium (DMEM with Glutamax-1 and supplemented with 1% FBS (v/v)) was added (1.3 mL/well). […] The determination of the unspecific binding was conducted by incubating each test radioligand in the presence of excess TATE, which was added in 100 μL of PBS to a final concentration of 5 µM. The six-well plates were incubated under standard culturing conditions for 2 h; the medium was removed, the cells were washed with PBS (2 × 1 mL) and lysed as described above. The cell lysates were collected and measured in the γ-counter.

in vitro = in vitro ADME; settings: human, plasma
Experimental: Plasma stability studies were conducted in vitro by incubating the radioligands (in 100 µL PBS) in 1400 µL of human blood plasma (H4522–20ML, Sigma-Aldrich, Vienna, Austria) to a final concentration of 250 nM (approximately 5 MBq). After an incubation period of 6 h at 37 °C, aliquots of 100 µL were mixed with 100 µL of MeCN for protein precipitation. The mixtures were vortexed and centrifuged for 10 min (15,000× g) at 5 °C and the supernatants were collected. The supernatants (50 µL) were mixed with 0.1% aqueous TFA (50 µL) for posterior γ-HPLC analyses on a Chromolith® RP-18 performance column (2 µm, 4.6 mm × 100 mm; Merck Millipore, Vienna, Austria) eluted at a flow rate of 3 mL/min with the linear gradient from 90% A/10% B to 50% A/50% B in 14 min (A: 0.1% aqueous TFA and B: MeCN) (n = 2).

HEK293-hSST2R xenografts = settings: male, SCID, mouse, in vivo, iv, 3 nmol, 4 h
in vivo = settings: male, SCID, mouse, iv, 3 nmol, total radioactivity

T2 sequence (P30680 whole entry): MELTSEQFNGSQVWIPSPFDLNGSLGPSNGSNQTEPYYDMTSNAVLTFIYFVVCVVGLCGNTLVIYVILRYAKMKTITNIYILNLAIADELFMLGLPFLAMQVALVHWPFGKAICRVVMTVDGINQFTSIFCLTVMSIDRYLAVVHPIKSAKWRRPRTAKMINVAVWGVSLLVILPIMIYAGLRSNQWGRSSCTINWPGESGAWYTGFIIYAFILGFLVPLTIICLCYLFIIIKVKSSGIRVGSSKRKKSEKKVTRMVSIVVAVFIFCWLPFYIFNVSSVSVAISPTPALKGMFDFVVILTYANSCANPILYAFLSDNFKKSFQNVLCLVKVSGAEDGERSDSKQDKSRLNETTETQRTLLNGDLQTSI
T1 sequence (P32745 whole entry): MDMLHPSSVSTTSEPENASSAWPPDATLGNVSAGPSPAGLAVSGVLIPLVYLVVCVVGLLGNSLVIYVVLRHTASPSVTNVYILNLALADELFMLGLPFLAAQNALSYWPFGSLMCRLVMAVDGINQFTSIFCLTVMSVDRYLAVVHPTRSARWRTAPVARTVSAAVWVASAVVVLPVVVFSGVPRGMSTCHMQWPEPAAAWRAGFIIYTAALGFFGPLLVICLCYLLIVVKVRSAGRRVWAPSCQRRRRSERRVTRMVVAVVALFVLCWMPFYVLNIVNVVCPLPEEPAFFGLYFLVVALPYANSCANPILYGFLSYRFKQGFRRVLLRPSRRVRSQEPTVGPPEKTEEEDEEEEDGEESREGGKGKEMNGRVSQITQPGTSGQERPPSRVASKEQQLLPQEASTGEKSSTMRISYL

With `C[C@H](NC(=O)CN1CCN(CC(=O)O)CCN(CC(=O)O)CCN(CC(=O)O)CC1)C(=O)NCC(=O)N[C@H]1CSSC[C@@H](C(=O)O)NC(=O)[C@H](CO)NC(=O)[C@H]([C@@H](C)O)NC(=O)[C@H](Cc2ccccc2)NC(=O)[C@H]([C@@H](C)O)NC(=O)[C@H](CCCCN)NC(=O)[C@@H](Cc2c[nH]c3ccccc23)NC(=O)[C@H](Cc2ccccc2)NC(=O)[C@H](Cc2ccccc2)n2cc(nn2)[C@H](CC(N)=O)NC(=O)[C@H](CCCCN)NC1=O` [XG1, [DOTA,Asn^5-Ψ[Tz]-Phe^6, D-Trp^8]SST-14] ({DOTA}-AGCK[X1]F[dW]KTFTSC-OH; disulfide 3-13) the IC50 (hSST3R) was 3 ± 0.9 nM.

`C[C@H](NC(=O)CN1CCN(CC(=O)O)CCN(CC(=O)O)CCN(CC(=O)O)CC1)C(=O)NCC(=O)N[C@H]1CSSC[C@@H](C(=O)O)NC(=O)[C@H](CO)NC(=O)[C@H]([C@@H](C)O)NC(=O)[C@H](Cc2ccccc2)NC(=O)[C@H]([C@@H](C)O)NC(=O)[C@H](CCCCN)NC(=O)[C@@H](Cc2c[nH]c3ccccc23)NC(=O)[C@H](Cc2ccccc2)NC(=O)[C@H](Cc2ccccc2)NC(=O)[C@H](CC(N)=O)NC(=O)[C@H](CCCCN)NC1=O` [[^111In]In-AT2S, metal not drawn, reference compound] gave a Kd [1] of 12 ± 3.88 nM and a remaining at 6 h, 250 nM (in vitro) greater than 90%.

With `C[C@H](NC(=O)CN1CCN(CC(=O)O)CCN(CC(=O)O)CCN(CC(=O)O)CC1)C(=O)NCC(=O)N[C@H]1CSSC[C@@H](C(=O)O)NC(=O)[C@H](CO)NC(=O)[C@H]([C@@H](C)O)NC(=O)[C@H](Cc2ccccc2)NC(=O)[C@H]([C@@H](C)O)NC(=O)[C@H](CCCCN)NC(=O)[C@@H](Cc2c[nH]c3ccccc23)NC(=O)[C@H](Cc2ccccc2)NC(=O)[C@H](Cc2ccccc2)n2cc(nn2)[C@H](CC(N)=O)NC(=O)[C@H](CCCCN)NC1=O` [[^111In]In-XG1, metal not drawn] ({DOTA}-AGCK[X1]F[dW]KTFTSC-OH; disulfide 3-13) the remaining at 6 h, 250 nM (in vitro) was greater than 90%, the kidney uptake (HEK293-hSST2R xenografts) was greater than 200 % IA/g and the tissue uptake at 4 h (in vivo; HEK293-hSST2R tumor uptake) was 1.61 %ID/g. The tissue uptake at 4 h (in vivo; kidney uptake) was 310 %ID/g and the tissue uptake at 4 h (in vivo; wtHEK293 (SST2R-negative) control tumor uptake) was 0.56 %ID/g.

For `C[C@H](NC(=O)CN1CCN(CC(=O)O)CCN(CC(=O)O)CCN(CC(=O)O)CC1)C(=O)NCC(=O)N[C@H]1CSSC[C@@H](C(=O)O)NC(=O)[C@H](CO)NC(=O)[C@H]([C@@H](C)O)NC(=O)[C@H](Cc2ccccc2)NC(=O)[C@H]([C@@H](C)O)NC(=O)[C@H](CCCCN)NC(=O)[C@@H](Cc2c[nH]c3ccccc23)NC(=O)[C@H](Cc2ccccc2)n2cc(nn2)[C@H](Cc2ccccc2)NC(=O)[C@H](CC(N)=O)NC(=O)[C@H](CCCCN)NC1=O` [[^111In]In-XG2, metal not drawn] ({DOTA}-AGCKN[X2][dW]KTFTSC-OH; disulfide 3-13), the Kd [1] was greater than 50 nM.
